# US11878981B2, “Substituted 1,2,4-oxadiazoles as TRPA1 inhibitors” (Boehringer Ingelheim International GmbH, priority 2021, dated 2024)
# How the values were obtained:
# human TRPA1 ion channel = molecular target: T1, human TRPA1 ion channel (Homo sapiens, UniProt O75762); assay: Assay A: TRPA1 assay (in vitro TRPA1 cell assay, FLIPR calcium); format: cell-based; conditions: read-out: hTRPA1 IC50
# T1 construct: host or cells: HEK293
# Description: A human HEK293 cell line over-expressing the human TRPA1 ion channel (Perkin Elmer, Product No. AX-004-PCL) is used as a test system for compound efficacy and potency. Compound activity is determined by measuring the effect of compounds on intracellular calcium concentration induced by AITC (Allylisothiocyanat) agonism in a FLIPRtetra system (Molecular Devices).
# The cells are obtained as frozen cells in cryo-vials and stored until use at −150° C.
# Cells are grown in culture medium (MEM/EBSS medium with 10% FCS and 0.4 mg/ML Geneticin). […] For sub-culturing cells are detached from flasks by Versene. At the day before the assay, cells are detached, washed twice with medium (MEM/EBSS medium with 10% FCS) and 20000 cells in 20 μl/well are seeded to Poly D-Lysin biocoated 384-well plates (black, clear bottom, Cat. 356697) from Corning. Plates are incubated for 24 hours at 37° C./5% CO2 before use in the assay.
# The test compounds are dissolved in 100% DMSO at a concentration of 10 mM and in a first step diluted in DMSO to a concentration of 5 mM, followed by serial dilution steps in 100% DMSO. Dilution factor and number of dilution steps may vary according to needs. Typically 8 different concentrations by 1:5 dilutions are prepared, further intermediate dilutions (1:20) of the substances are carried out with HBSS/HEPES buffer (1×HEPES, Cat. 14065 from Gibco, 20 mM HEPES, Cat. 83264 from SIGMA, 0.1% BSA Cat. 11926 from Invitrogen, pH 7.4
# At the assay day cells are washed 3× with assay puffer, 20 μL buffer remaining in the wells after washing. 10 μL Ca6 kit (Cat. R8191 MolecularDevices) loading buffer in HBSS/HEPES is added to the cells and the plates are incubated with lid for 120 minutes at 37°/5% CO2. 10 μL of compound or controls in HBSS/HEPES buffer/5% DMSO from the intermediate dilution plate are carefully added to the wells. […] Finally 10 μL of the agonist AITC 50 μM dissolved in HBSS/HEPES buffer/0.05% DMSO (final concentration 10 μM) is added to the wells followed by an additional read on the FLIPRtetra device for 10 minutes. The area under the signal curve (AUC) after AITC addition is used for IC50/% inhibition calculations
# Data Evaluation and Calculation:
# Each assay microtiter plate contains wells with vehicle (1% DMSO) controls instead of compound as controls for AITC induced luminescence (100% CTL; high controls) and wells with vehicle controls without AITC as controls for non-specific changes in luminescence (0% CTL; low controls).
# The analysis of the data is performed by the calculation of the area under signal curve of the individual wells. Based on this values the % value for the measurement of each substance concentration is calculated (AUC(sample)−AUC(low))*100/(AUC(high)−AUC(low)) using MegaLab software (in house development). The IC50 values are calculated from the % control values using MegaLab software. Calculation: [y=(a−d)/(1+(x/c)^b)+d], a=low value, d=high value; x=conc M; c=IC50 M; b=hill; y=% ctrl
# human hepatocytes = assay: Assay C: Hepatocyte clearance; format: in vitro ADME; conditions: hepatocyte suspension, 5% species serum, test compound 1 μM, six hours
# Description: Assay C: Hepatocyte Clearance
# The metabolic degradation of the test compound is assayed in a hepatocyte suspension. Hepatocytes (cryopreserved) are incubated in Dulbecco's modified eagle medium (supplemented with 3.5 μg glucagon/500 mL, 2.5 mg insulin/500 mL and 3.75 mg/500 mL hydrocortison) containing 5% species serum.
# The cells are incubated for six hours (incubator, orbital shaker) and samples ([…]) are taken at 0, 0.5, 1, 2, 4 and 6 hours. Samples are transferred into acetonitrile and pelleted by centrifugation (5 min). The supernatant is transferred to a new 96-deepwell plate, evaporated under nitrogen and resuspended.
# Decline of Parent Compound is Analyzed by HPLC-MS/MS
# CLint is calculated as follows CL_[…]=Dose/AUC=(C0/CD)/(AUD+clast/k)×1000/60. C0: initial concentration in the incubation [μM], CD: cell density of vital cells [10e6 cells/mL], AUD: area under the data [μM×h], clast: concentration of last data point [μM], k: slope of the regression line for parent decline [h−1].
# The calculated in vitro hepatic intrinsic clearance can be scaled up to the intrinsic in vivo hepatic Clearance and used to predict hepatic in vivo blood clearance (CL) by the use of a liver model (well stirred model). CL_[…]_INVIVO [ml/min/kg]=(CL_[…] [μL/min/10e6cells]×hepatocellularity [10e6 cells/g liver]×liver factor [g/kg bodyweight])/1000 CL [ml/min/kg]=CL_[…]_INVIVO [ml/min/kg]×hepatic blood flow [ml/min/kg]/(CL_[…]_INVIVO [ml/min/kg]+hepatic blood flow [ml/min/kg]) Qh [%]=CL [ml/min/kg]/hepatic blood flow [ml/min/kg])
# (§1) Hepatocellularity, human: 120×10e6 cells/g liver
# (§2) Liver factor, human: 25.7 g/kg bodyweight
# (§3) Blood flow, human: 21 ml/(min×kg)
# [1] = Assay B: Microsomal clearance; format: in vitro ADME, human; conditions: pooled liver microsomes, 37° C., 1 mg/ml protein, test compound 1 μM, NADPH
# Description: Assay B: Microsomal Clearance:
# The metabolic degradation of the test compound is assayed at 37° C. with pooled liver microsomes. The final incubation volume of 100 μl per time point contains TRIS buffer pH 7.6 at RT (0.1 M), magnesium chloride (5 mM), microsomal protein (1 mg/ml) and the test compound at a final concentration of 1 μM.
# Following a short preincubation period at 37° C., the reactions are initiated by addition of beta-nicotinamide adenine dinucleotide phosphate, reduced form (NADPH, 1 mM) and terminated by transferring an aliquot into solvent after different time points (0, 5, 15, 30, 60 min). Additionally, the NADPH-independent degradation is monitored in incubations without NADPH, terminated at the last time point. The [%] remaining test compound after NADPH independent incubation is reflected by the parameter c (control) (metabolic stability). The quenched incubations are pelleted by centrifugation (10000 g, 5 min).
# An aliquot of the supernatant is assayed by LC-MS/MS for the amount of parent compound. The half-life (t½ INVITRO) is determined by the slope of the semilogarithmic plot of the concentration-time profile.
# The intrinsic clearance (CL_[…]) is calculated by considering the amount of protein in the incubation: CL _[…] [μl/min/mg protein]=(Ln 2/(half-life [min]*protein content [mg/ml]))*1000 CL_[…]_INVIVO [ml/min/kg]=(CL_[…] [μL/min/mg protein]×MPPGL [mg protein/g liver]×liver factor [g/kg bodyweight])/1000 Qh [%]=CL [ml/min/kg]/hepatic blood flow [ml/min/kg])
# as §1, §2, §3
# T1 sequence (O75762 whole entry): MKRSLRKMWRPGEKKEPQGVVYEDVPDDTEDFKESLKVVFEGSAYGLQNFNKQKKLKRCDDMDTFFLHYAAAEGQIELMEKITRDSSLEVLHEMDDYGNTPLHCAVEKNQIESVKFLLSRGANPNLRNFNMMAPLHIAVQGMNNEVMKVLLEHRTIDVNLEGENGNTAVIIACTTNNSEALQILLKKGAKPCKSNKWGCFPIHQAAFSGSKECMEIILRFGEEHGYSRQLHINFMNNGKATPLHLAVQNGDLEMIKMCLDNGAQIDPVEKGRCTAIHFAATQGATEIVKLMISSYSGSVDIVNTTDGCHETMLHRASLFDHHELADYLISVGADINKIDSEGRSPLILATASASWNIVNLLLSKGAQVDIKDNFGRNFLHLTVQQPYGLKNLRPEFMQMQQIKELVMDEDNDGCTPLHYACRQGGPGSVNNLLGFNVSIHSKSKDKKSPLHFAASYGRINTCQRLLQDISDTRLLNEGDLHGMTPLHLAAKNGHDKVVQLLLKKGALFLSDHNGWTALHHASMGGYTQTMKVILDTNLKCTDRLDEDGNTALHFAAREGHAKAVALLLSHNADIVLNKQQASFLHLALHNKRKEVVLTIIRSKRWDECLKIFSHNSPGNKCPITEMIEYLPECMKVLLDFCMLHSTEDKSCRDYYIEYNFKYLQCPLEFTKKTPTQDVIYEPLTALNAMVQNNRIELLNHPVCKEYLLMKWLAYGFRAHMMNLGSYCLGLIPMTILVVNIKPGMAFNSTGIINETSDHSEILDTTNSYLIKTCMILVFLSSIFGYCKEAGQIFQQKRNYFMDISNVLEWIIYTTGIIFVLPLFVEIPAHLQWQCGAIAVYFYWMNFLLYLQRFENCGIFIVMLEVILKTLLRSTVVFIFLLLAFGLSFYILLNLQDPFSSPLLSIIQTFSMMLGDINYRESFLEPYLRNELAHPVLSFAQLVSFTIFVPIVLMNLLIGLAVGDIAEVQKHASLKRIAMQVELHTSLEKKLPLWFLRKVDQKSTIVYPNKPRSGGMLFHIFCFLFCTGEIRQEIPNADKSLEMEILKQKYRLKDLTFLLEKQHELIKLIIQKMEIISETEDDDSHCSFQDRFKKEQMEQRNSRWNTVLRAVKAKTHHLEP
Compound,IC50 (human TRPA1 ion channel),human Hepatocytes [% Qh] (human hepatocytes),human LM [% Qh] [1]
"Cn1c(=O)n(C)c2c(=O)n(Cc3nc(C[C@H](O)c4ccc(Cl)cc4)no3)ncc21 [Example 1, 5-({3-[(2S)-2-(4-chlorophenyl)-2-hydroxyethyl]-1,2,4-oxadiazol-5-yl}methyl)-1,3-dimethyl-1H,2H,3H,4H,5H-imidazo[4,5-d]pyridazine-2,4-dione]",22 nM,10 % Qh,<23 % Qh
Cc1ccc([C@@H](O)Cc2noc(Cn3ncc4c(c3=O)n(C)c(=O)n4C)n2)cc1 [Example 2],47 nM,14 % Qh,<23 % Qh
Cn1c(=O)n(C)c2c(=O)n(Cc3nc(C[C@H](O)c4ccc(F)cc4)no3)ncc21 [Example 3],147 nM,13 % Qh,<23 % Qh
Cn1c(=O)n(C)c2c(=O)n(Cc3nc(C[C@H](O)c4cc5ccccc5o4)no3)ncc21 [Example 4],158 nM,9 % Qh,<23 % Qh
Cn1cnc2cnn(Cc3nc(C[C@H](O)c4ccc(Cl)cc4)no3)c(=O)c21 [Example 5],60 nM,23 % Qh,<23 % Qh
Cc1ccc([C@@H](O)Cc2noc(Cn3ncc4ncn(C)c4c3=O)n2)cc1 [Example 6],96 nM,9 % Qh,<23 % Qh
Cn1cnc2cnn(Cc3nc(C[C@H](O)c4ccc5c(c4)OCO5)no3)c(=O)c21 [Example 7],204 nM,9 % Qh,<23 % Qh
"Cn1cnc2cnn(Cc3nc(C[C@H](O)c4ccc(Br)cc4)no3)c(=O)c21 [Example 8, 6-({3-[(2S)-2-(4-bromophenyl)-2-hydroxyethyl]-1,2,4-oxadiazol-5-yl}methyl)-1-methyl-1H,6H,7H-imidazo[4,5-d]pyridazin-7-one]",41 nM,39 % Qh,<23 % Qh
Cn1cnc2cnn(Cc3nc(C[C@H](O)c4cc5ccc(F)cc5s4)no3)c(=O)c21 [Example 9],9 nM,43 % Qh,41 % Qh
Cn1cnc2cnn(Cc3nc(C[C@H](O)c4cc5cc(F)ccc5o4)no3)c(=O)c21 [Example 10],13 nM,29 % Qh,<23 % Qh
Cn1cnc2cnn(Cc3nc(C[C@H](O)c4cc5cc(Cl)ccc5o4)no3)c(=O)c21 [Example 11],19 nM,35 % Qh,30 % Qh
Cn1cnc2cnn(Cc3nc(C[C@H](O)c4cc5ccccc5s4)no3)c(=O)c21 [Example 12],24 nM,42 % Qh,31 % Qh
Cn1c(=O)n(C)c2c(=O)n(Cc3nc(C[C@H](O)c4cc5ccc(F)cc5s4)no3)ncc21 [Example 13],9 nM,,36 % Qh
Cn1c(=O)n(C)c2c(=O)n(Cc3nc(C[C@H](O)c4cc5ccccc5s4)no3)ncc21 [Example 14],19 nM,43 % Qh,<23 % Qh
Cn1c(=O)n(C)c2c(=O)n(Cc3nc(C[C@H](O)c4cc5cc(Cl)ccc5o4)no3)ncc21 [Example 15],47 nM,12 % Qh,<23 % Qh
Cn1c(=O)n(C)c2c(=O)n(Cc3nc(C[C@H](O)c4cc5cc(F)ccc5o4)no3)ncc21 [Example 16],79 nM,14 % Qh,<23 % Qh
